Article PMC8333425, “Discovery of a dual Ras and ARF6 inhibitor from a GPCR endocytosis screen” (Nature Communications, 2021)
Values after ≈ are worked out from the molar mass of the structure shown. One block for each compound: values may come before it.

Key:
[1] = Maximal solubility concentration; format: physicochemical
AT1R = experiment: Endosomal BRET assay of AngII-mediated AT1R internalization (AT1R-RlucII / Endo-rGFP; HTS, validation, concentration-response); format: cell-based, human
Text: We performed a HT campaign in HEK293 cells using the bystander endosomal BRET sensor, which consists of a Renilla luciferase (RlucII)-tagged AT1R and an acceptor renilla GFP (rGFP) anchored to endosomes through an Endofin-FYVE (Endo-rGFP) domain[12]. AngII-mediated trafficking of AT1R to endosomes was screened against commercial libraries of ~115,000 small molecules (Fig. 1a and Supplementary Data 1). Because our assay is based on luminescence and fluorescence, we excluded 6610 compounds that quenched more than 50% of the luciferase or GFP signals. After excluding 5 AT1R antagonists, we conserved hit compounds blocking by more than 40%, as well as those potentiating by more than 100% receptor internalization. From this collection of 943 compounds, a second validation on AT1R internalization was performed using the same BRET assay, as well as on the agonist-mediated B2R internalization, this time using B2R-RlucII and Endo-rGFP. Only compounds that were revalidated on AT1R and affected B2R endocytosis were kept, which included forty hits (20 potentiators and 20 inhibitors) (Fig. 1b and Supplementary Data 2). We focused on inhibitors that were commercially available at the beginning of the project and tested their cell toxicity by microscopy, looking at cells expressing B2R tagged with YFP, which highlights cell contours and potential morphological changes, such as rounding up of cells following treatment with 50 μM of the compounds that may have indicated cell death. None of the inhibitors tested caused abnormal cell morphological changes when cells were treated with compounds as compared to DMSO-treated cells. Inhibitors were also assessed in terms of structure novelty, derivatization potential, and commercial availability of analogs (within 95–98% similarity from Tanimoto metric, Sci-Finder, https://scifinder-n.cas.org), for structure-activity relationship studies (SAR). They were scored 1–5, from best to worst. We excluded compounds with potential nucleophilic reactivity (e.g., Michael addition: compounds 7, 26, and 27), those reported to have biological activities (compounds 8, 20, 25, 30, and 35) and/or showing autofluorescence (compound 26). Compound 19 ranked high, but only had one other molecule with a similar structure available. Although other molecules could be interesting in their own rights as endocytosis inhibitors (e.g., compounds 1, 9, 11, 12, 13, 24, 31, and 37), we focused on compound 21 (Fig. 1c) because not only did it rank high in our analysis, but it was also the only compound with substantially more similar analogs commercially available at the time of these investigations. In the screen and the follow-up validation assay, 21 inhibited more than 50% AT1R internalization and more than 65% B2R internalization (Supplementary Data 2). […] Because β-arrestins are critically involved in GPCR endocytosis and trafficking in cells, we assessed 21’s effects on β-arrestins’ recruitment to AT1R and B2R at the PM using a BRET assay, as well as their trafficking into endosomes by microscopy.
The chemical library used for initial screening was from Chembridge DiverSet™ (60,000 compounds), Maybridge HitFinder™ (16,000 compounds), Maybridge (selected, 16,000 compounds), SPECS (selected, 16000 compounds), Microsource Discovery Spectrum (2000 compounds), Biomol (natural products, 500 compounds), Prestwick (commercialized products, 1120 compounds), SIGMA LopacTM (1280 compounds) and internal collection (synthesized at Université de Montréal-IRIC, ~4000 compounds). Compounds were all assigned an Université de Montréal number (UM) for internal use. Screen was performed at IRIC HTS facility. KINOMEscan™ profiling was serviced by Eurofin/DiscoverX (San Diego, USA).
HEK293SL cells were seeded at a density of 7.5 × 10^5 cells per 100-mm dish and 24 h later, transiently transfected as such. […]

K-Ras-Y32A = target: T1, K-Ras-Y32A (Homo sapiens, UniProt P01116, Y32A); experiment: In vitro mant-GTP exchange assay, purified K-Ras-Y32A with SOS1; format: biochemical; conditions: 50 μM
T1 construct: GST (N); FLAG (N); host or cells: E. coli BL21
Description: (§1) Ras activity was assessed in a 384-well black bottom plate using the mant-GTP exchange factor assay that measures the uptake of the fluorescent nucleotide analog N-methylanthraniloyl-GTP (mant-GTP) into GTPases. For Ras activation, 2X exchange buffer, 1.66 μg of purified pGEX-6P-1-H-Ras or pGEX-6P-1-K-Ras-WT or pGEX-6P-1-K-Ras-Y32A were added per well in presence of DMSO, different concentrations of Rasarfin (as indicated) or 50 µM of compounds 21.4, 21.7, or 21.8. Using the Infinite 200 Pro plate reader (Tecan) with filters set at 360 nm and 440 nm for detecting the excitation and emissions, respectively, and temperature set at 20 °C, 5 readings were recorded every 5 s before the addition of either H2O, 40 mM EDTA or 0.66 μg purified SOS1. The fluorescence of mant-GTP uptake was measured every 30 sec for 30 min and quantified as the delta relative fluorescence units (RFU), which was calculated as the RFU post-addition minus the 5 averaged RFU pre-addition, per condition.

H-Ras = H-Ras (Homo sapiens, UniProt P01112); experiment: In vitro mant-GTP exchange assay, purified H-Ras with purified SOS1; format: biochemical; set-up: the cDNA of H-Ras (full length) was obtained by RT-PCR of HEK293SL; GST (N); host or cells: E. coli BL21
Description: as §1

H-Ras, sequence (P01112 whole entry): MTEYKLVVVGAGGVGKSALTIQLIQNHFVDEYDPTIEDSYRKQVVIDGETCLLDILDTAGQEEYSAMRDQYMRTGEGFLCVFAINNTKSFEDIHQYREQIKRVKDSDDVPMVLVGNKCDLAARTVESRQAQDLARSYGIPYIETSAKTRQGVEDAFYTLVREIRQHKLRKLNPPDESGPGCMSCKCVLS
T1 sequence (P01116 1-188 isoform P01116-2 Y32A): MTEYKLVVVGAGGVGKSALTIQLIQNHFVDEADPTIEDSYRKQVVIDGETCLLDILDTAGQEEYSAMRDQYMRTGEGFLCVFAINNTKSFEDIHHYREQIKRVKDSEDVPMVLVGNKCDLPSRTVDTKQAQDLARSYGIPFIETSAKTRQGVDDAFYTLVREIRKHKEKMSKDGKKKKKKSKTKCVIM

Compound: CC(C)C(=O)N1CCN(c2ccc(NC(=O)c3cc4ccccc4o3)cc2Cl)CC1 [Compound 21]
solubility ([1]; DMSO, organic solvent or mixture, read-out: maximum solubility concentration in DMSO): ~50 µM (≈ 21.3 µg/mL) | block of AT1R internalization (AT1R; 21 at 50 µM): around 90% | Mean Diff. DMSO vs. compound (Fig.8a, Dunnett's multiple comparisons test) (AT1R; DMSO = 100): 49.06 | IC50 (AT1R; Homo sapiens, AngII, into endosomes, read-out: IC50 for inhibition of AT1R internalization): 10 µM | AT1R internalization into endosomes, ligand-promoted BRET (Mean) (AT1R; Log [Comp21] (M) -4.3): 13.6921 percent compared to DMSO | AT1R internalization into endosomes, ligand-promoted BRET (Mean) (AT1R; Log [Comp21] (M) -4.6): 24.3306 percent compared to DMSO | AT1R internalization into endosomes, ligand-promoted BRET (Mean) (AT1R; Log [Comp21] (M) -5): 74.1156 percent compared to DMSO | AT1R internalization into endosomes, ligand-promoted BRET (Mean) (AT1R; Log [Comp21] (M) -5.3): 91.7102 percent compared to DMSO | AT1R internalization into endosomes, ligand-promoted BRET (Mean) (AT1R; Log [Comp 21] (M) -6): 95.8484 percent compared to DMSO | AT1R internalization into endosomes, ligand-promoted BRET (Mean) (AT1R; Log [Comp21] (M) -6.3): 92.6647 percent compared to DMSO | AT1R internalization into endosomes, ligand-promoted BRET (Mean) (AT1R; Log [Comp 21] (M) -7): 100.935 percent compared to DMSO | AT1R Confirmation Inhibition (%DMSO) (AT1R; confirmation, two experiments, negative = potentiation): 60.3475 %DMSO | AT1R Primary Screen Inhibition (%DMSO) (AT1R; primary screen, negative = potentiation): 53.93 %DMSO | inhibition of AT1R internalization (AT1R; screen and follow-up validation assay): more than 50% | SOS-mediated mant-GTP binding onto purified K-Ras-Y32A (K-Ras-Y32A): but not on K-Ras-Y32A | uptake of mant-GTP into purified H-Ras in presence of SOS1 (H-Ras; different concentrations): inhibited in a dose-dependent manner the uptake of GTP into Ras

Ras exchange activity, mant-GTP loading into H-Ras with SOS1 (Fig. 8c) (H-Ras; 50 μM): inhibited Ras exchange activity
Compound: CCCC(=O)N1CCN(c2ccc(NC(=O)c3cc4ccccc4o3)cc2Cl)CC1 [Compound 21.8]
inhibition of AT1R internalization into endosomes (Fig. 8a) (AT1R; 50 μM): loss of compounds’ efficacy to inhibit AT1R internalization

maximal solubility concentration [1]: 100 µM
Compound: Nn1cnc2scc(-c3ccc(Cc4ccccc4)cc3)c2c1=O [Barbadin, reference compound]
